{
  "source": "patent US6465482B2",
  "about": "“Arylpiperazinyl-cyclohexyl indole derivatives for the treatment of depression” (Wyeth, priority 1999, dated 2002)",
  "note": "Counter-ions that a name gives are not always drawn.",
  "data": [
    {"values": [
      {"molecule": "N#Cc1ccc2[nH]cc([C@H]3CC[C@H](N4CCN(c5cccc6c5OCCO6)CC4)CC3)c2c1", "note": "(as salt: HCl) [Example 26b, 3-{(1,4-trans)-4-[4-(2,3-Dihydro-benzo[1,4]dioxin-5-yl)-piperazin-1-yl]-cyclohexyl}-1H-indole-5-carbonitrile]", "melting point": "300 °C (dec.)"},
      {"molecule": "Cn1cc([C@H]2CC[C@@H](N3CCN(c4cccc5cccnc45)CC3)CC2)c2cc(C#N)ccc21", "note": "(as salt: HCl) [Example 30, 1-Methyl-3-[(1,4-cis)-4-(4-quinolin-8-yl-piperazin-1-yl)-cyclohexyl]-1H-indole-5-carbonitrile]", "melting point": "288 to 289 °C"},
      {"molecule": "Cn1cc([C@H]2CC[C@@H](N3CCN(c4cc(F)cc5c4OCC5)CC3)CC2)c2cc(C#N)ccc21", "note": "(as salt: HCl) [Example 33c, 3-{(1,4-cis)-4-[4-(5-Fluoro-2,3-dihydro-benzofuran-7-yl)-piperazin-1-yl]-cyclohexyl}-1-methyl-1H-indole-5-carbonitrile]", "melting point": "282 to 284 °C"},
      {"molecule": "COc1ccccc1N1CCN(C2CC=C(c3c[nH]c4ccc(F)cc34)CC2)CC1", "note": "(centres unmarked) (as salt: HCl) [Example 35, 5-Fluoro-3-{4-[4-(2-methoxy-phenyl)-piperazin-1-yl]cyclohex-1-enyl}-1H-indole]", "melting point": "250 °C"},
      {"molecule": "N#Cc1ccc2[nH]cc(C3=CCC(N4CCN(c5cccc6[nH]ccc56)CC4)CC3)c2c1", "note": "(centres unmarked) (as salt: HCl) [Example 36, 3-{4-[4-(1H-Indol-4-yl)-piperazin-1-yl]-cyclohex-1-enyl}-1H-indole-5-carbonitrile]", "melting point": "199 to 201 °C"},
      {"molecule": "COc1cc(N2CCN([C@H]3CC[C@H](c4c[nH]c5ccc(C#N)cc54)CC3)CC2)c2cc[nH]c2c1", "note": "(as salt: HCl) [Example 68b, 3-[trans-4-[4-(6-Methoxy-1H-indole-4-yl)-1-piperazinyl]cyclohexyl]1H-indole-5-carbonitrile]", "melting point": "> 210 °C"},
      {"molecule": "COc1ccc2cc(N3CCN(C4CCC(c5c[nH]c6ccc(F)cc56)CC4)CC3)ccc2c1", "note": "(centres unmarked) (as salt: oxalate) [Example 69, 5-Fluoro-3-{4-[4-(6-Methoxy-naphthalen-2-yl)-piperazin-1-yl]-cyclohexyl}-1H-indole]", "melting point": "200 to 203 °C"},
      {"molecule": "Cn1cc([C@H]2CC[C@@H](N3CCN(c4cc(C=O)cc5cccnc45)CC3)CC2)c2cc(C#N)ccc21", "note": "(as salt: oxalate) [Example 71, 8-[4-[(cis)-4-(5-Cyano-1-methyl-1H-indole-3-yl)-cyclohexyl]-piperazin-1-yl]-6-quinolinecarbaldehyde]", "melting point": "172 to 174 °C"},
      {"molecule": "Cn1cc([C@H]2CC[C@@H](N3CCN(c4cc(C(=O)O)cc5cccnc45)CC3)CC2)c2cc(C#N)ccc21", "note": "(as salt: oxalate) [Example 73, 8-[4-[(cis)-4-(5-Cyano-1-methyl-1H-indole-3-yl)cyclohexyl]-1-piperazinyl]-6-quinolinecarboxylic Acid]", "melting point": "230 °C"},
      {"molecule": "COC(=O)c1cc(N2CCN([C@H]3CC[C@@H](c4cn(C)c5ccc(C#N)cc54)CC3)CC2)c2ncccc2c1", "note": "(as salt: oxalate) [Example 75, Methyl 8-[4-[(cis)-4-(5-cyano-1-methyl-1H-indol-3-yl)cyclohexyl]-1-piperazinyl]-6-quinolinecarboxylate]", "melting point": "153 to 155 °C"},
      {"molecule": "CN(C)C(=O)c1cc(N2CCN([C@H]3CC[C@@H](c4cn(C)c5ccc(C#N)cc54)CC3)CC2)c2ncccc2c1", "note": "(as salt: oxalate) [Example 77a, 8-[4-[(cis)-4-(5-Cyano-1-methyl-1H-indol-3-yl)cyclohexyl]-1-piperazinyl]-N,N-dimethyl-6-quinolincarboxamide]", "melting point": "163 to 165 °C"},
      {"molecule": "COc1cc(N2CCN([C@H]3CC[C@@H](c4c[nH]c5ncccc54)CC3)CC2)c2ncccc2c1", "note": "(as salt: oxalate) [Example 78, 6-Methoxy-8-{cis-4-[4-(1H-pyrrolo[2,3-b]pyridin-3-yl)cyclohexyl]-1-piperazinyl}quinoline]", "melting point": "216 to 220 °C"},
      {"molecule": "COc1cc2cccnc2c(N2CCN([C@H]3CC[C@@H](c4cn(C)c5ccc(C#N)cc54)CC3)CC2)n1", "note": "(as salt: salt) [Example 66a, (cis)-3-{4-[4-(6-Methoxy[1,7]naphthyridin-8-yl)piperazin-1-yl]cyclohexyl}-1-methyl-1H-indole-5-carbonitrile]", "melting point": "235 to 238 °C"},
      {"molecule": "COc1cc2cccnc2c(N2CCN([C@H]3CC[C@@H](c4cn(C)c5ccc(C#N)cc54)CC3)CC2)n1", "note": "(as salt: salt) [Example 66b, (cis)-3-{4-[4-(6-Methoxy[1,7]naphthyridin-8-yl)piperazin-1-yl]cyclohexyl}-1-methyl-1H-indole-5-carbonitrile]", "melting point": "230 to 233 °C"},
      {"molecule": "COc1cc(N2CCN([C@H]3CC[C@@H](c4cn(C)c5ccc(C#N)cc54)CC3)CC2)c2nc(C)ccc2c1", "note": "[Example 51a, (cis)-3-{4-[4-(6-Methoxy-2-methylquinolin-8-yl)piperazin-1-yl]cyclohexyl}-1-methyl-1H-indole-5-carbonitrile]", "melting point": "201 to 203 °C"},
      {"molecule": "COc1cc(N2CCN([C@H]3CC[C@@H](c4cn(C)c5ccc(C#N)cc54)CC3)CC2)c2ncc(C)cc2c1", "note": "[Example 51b, (cis)-3-{4-[4-(6-Methoxy-3-methylquinolin-8-yl)piperazin-1-yl]cyclohexyl}-1-methyl-1H-indole-5-carbonitrile]", "melting point": "190 to 191.5 °C"},
      {"molecule": "COc1cc(N2CCN([C@H]3CC[C@@H](c4cn(C)c5ccc(C#N)cc54)CC3)CC2)c2nccc(C)c2c1", "note": "[Example 51c, (cis)-3-{4-[4-(6-Methoxy-4-methylquinolin-8-yl)piperazin-1-yl]cyclohexyl}-1-methyl-1H-indole-5-carbonitrile]", "melting point": "210 to 212 °C"},
      {"molecule": "COc1cc(N2CCN([C@H]3CC[C@H](c4cn(C)c5ccc(C#N)cc54)CC3)CC2)c2nccc(C)c2c1", "note": "[Example 51d, (trans)-3-{4-[4-(6-Methoxy-4-methylquinolin-8-yl)piperazin-1-yl]cyclohexyl}-1-methyl-1H-indole-5-carbonitrile]", "melting point": "230 to 232 °C"},
      {"molecule": "COc1cc(N2CCN([C@H]3CC[C@@H](c4cn(C)c5ccc(C#N)cc54)CC3)CC2)c2ncccc2c1C", "note": "[Example 52a, (cis)-3-{4-[4-(6-Methoxy-5-methylquinolin-8-yl)piperazin-1-yl]cyclohexyl}-1-methyl-1H-indole-5-carbonitrile]", "melting point": "227 to 228 °C"},
      {"molecule": "COc1cc(N2CCN([C@H]3CC[C@H](c4cn(C)c5ccc(C#N)cc54)CC3)CC2)c2ncccc2c1C", "note": "[Example 52b, (trans)-3-{4-[4-(6-Methoxy-5-methylquinolin-8-yl)piperazin-1-yl]cyclohexyl}-1-methyl-1H-indole-5-carbonitrile]", "melting point": "212 to 213 °C"},
      {"molecule": "COc1cc(N2CCN([C@H]3CC[C@@H](c4cn(C)c5ccc(C#N)cc54)CC3)CC2)c2ncccc2c1Cl", "note": "[Example 52e, (cis)-3-{4-[4-(5-Chloro-6-methoxyquinolin-8-yl)piperazin-1-yl]cyclohexyl}-1-methyl-1H-indole-5-carbonitrile]", "melting point": "231 °C"},
      {"molecule": "COc1cc(N2CCN([C@H]3CC[C@H](c4cn(C)c5ccc(C#N)cc54)CC3)CC2)c2ncccc2c1Cl", "note": "[Example 52f, (trans)-3-{4-[4-(5-Chloro-6-methoxyquinolin-8-yl)piperazin-1-yl]cyclohexyl}-1-methyl-1H-indole-5-carbonitrile]", "melting point": "215 to 216 °C"},
      {"molecule": "Cn1cc([C@H]2CC[C@@H](N3CCN(c4cc(Br)cc5cccnc45)CC3)CC2)c2cc(F)ccc21", "note": "[Example 58a, (cis)-6-Bromo-8-{4-[4-(5-fluoro-1-methyl-1H-indol-3-yl)cyclohexyl]piperazin-1-yl}quinoline]", "melting point": "215 to 217 °C"},
      {"molecule": "COc1cc(N2CCN([C@H]3CC[C@H](c4cn(C)c5ccc(C#N)cc54)CC3)CC2)c2nccnc2c1", "note": "[Example 65b, (trans)-3-{4-[4-(7-Methoxyquinoxalin-5-yl)piperazin-1-yl]cyclohexyl}-1-methyl-1H-indole-5-carbonitrile]", "melting point": "230 to 233 °C"},
      {"molecule": "Cn1cc([C@H]2CC[C@H](N3CCN(c4cc(C=O)cc5cccnc45)CC3)CC2)c2cc(C#N)ccc21", "note": "[Example 72, 8-[4-[(trans)-4-(5-Cyano-1-methyl-1H-indole-3-yl)-cyclohexyl]-piperazin-1-yl]-6-quinolinecarbaldehyde]", "melting point": "201 to 203 °C"},
      {"molecule": "Cn1cc([C@H]2CC[C@H](N3CCN(c4cc(C(=O)O)cc5cccnc45)CC3)CC2)c2cc(C#N)ccc21", "note": "[Example 74, 8-[4-[(trans)-4-(5-Cyano-1-methyl-1H-indole-3-yl)cyclohexyl]-1-piperazinyl]-6-quinolinecarboxylic Acid]", "melting point": "275 °C"},
      {"molecule": "CN(C)C(=O)c1cc(N2CCN([C@H]3CC[C@H](c4cn(C)c5ccc(C#N)cc54)CC3)CC2)c2ncccc2c1", "note": "[Example 77b, 8-[4-[(trans)-4-(5-Cyano-1-methyl-1H-indol-3-yl)cyclohexyl]-1-piperazinyl]-N,N-dimethyl-6-quinolincarboxamide]", "melting point": "160 to 163 °C"},
      {"molecule": "COc1cc(N2CCN([C@H]3CC[C@@H](c4cn(C)c5ncccc54)CC3)CC2)c2ncccc2c1", "note": "[Example 79, 6-Methoxy-8-{cis-4-[4-(1-methyl-1H-pyrrolo[2,3-b]pyridin-3-yl)cyclohexyl]-1-piperazinyl}quinoline]", "melting point": "105 to 110 °C"},
      {"molecule": "COc1cc(N2CCN([C@H]3CC[C@@H](c4c[nH]c5cc(F)ccc54)CC3)CC2)c2ncccc2c1", "note": "[Example 80, 8-{cis-4-[4-(6-Fluoro-1H-indol-3-yl)cyclohexyl]-1-piperazinyl}-6-methoxyquinoline]", "melting point": "239 to 243 °C"},
      {"molecule": "COc1cc(N2CCN([C@H]3CC[C@@H](c4cn(C)c5cc(F)ccc54)CC3)CC2)c2ncccc2c1", "note": "[Example 81, 8-{cis-4-[4-(6-Fluoro-1-methyl-1H-indol-3-yl)cyclohexyl]-1-piperazinyl}-6-methoxyquinoline]", "melting point": "219 to 223 °C"},
      {"molecule": "COc1cc(N2CCN([C@H]3CC[C@@H](c4c[nH]c5ccc(C(F)(F)F)cc54)CC3)CC2)c2ncccc2c1", "note": "[Example 82, 6-Methoxy-8-(4-{(cis)-4-[5-(trifluoromethyl)-1H-indol-3-yl]cyclohexyl}-1-piperazinyl)quinoline]", "melting point": "143 to 147 °C"},
      {"molecule": "COc1cc(N2CCN(C3CCC(c4c[nH]c5cc(C#N)ccc45)CC3)CC2)c2ncccc2c1", "note": "(centres unmarked) [Example 85, 3-{4-[4-(6-Methoxy-8-quinolinyl)-1-piperazinyl]cyclohexyl}-1H-indole-6-carbonitrile]", "melting point": "242 to 244 °C"}
    ]}
  ]
}
